From the NIST ThermoML archive (doi:10.1021/acs.jced.8b00058)
“And” between values parts separate entries of the source, which are not always exact repeats. Identical values can stand only once.

How the values were obtained:
[1] = 100 kPa, Liquid, Frequency=3 MHz, Single path-length method
[2] = mn = molality of the nth substance listed, in mol/kg; details: 100 kPa, Liquid; for speed of sound: Frequency=3 MHz, Single path-length method; for mass density: Vibrating tube method

O [water]
[1]
Details | speed of sound [m/s]
293.15 K | 1481.1
298.15 K | 1495.8
308.15 K | 1519.1

OCCO [1,2-ethanediol] + O
[2]
Details | mass density, m1 = 0.09889 [kg/m3] | mass density, m1 = 0.1989 [kg/m3] | mass density, m1 = 0.2997 [kg/m3] | mass density, m1 = 0.3948 [kg/m3] | mass density, m1 = 0.5016 [kg/m3] | speed of sound, m1 = 0.09889 [m/s] | speed of sound, m1 = 0.1989 [m/s] | speed of sound, m1 = 0.2997 [m/s] | speed of sound, m1 = 0.3948 [m/s] | speed of sound, m1 = 0.5016 [m/s]
293.15 K | 999.059 | 999.884 | 1000.68 | 1001.4 | 1002.2 | 1485.5 | 1488.3 | 1491.2 | 1493.9 | 1496.8
298.15 K | 997.877 | 998.688 | 999.473 | 1000.18 | 1000.96 | 1498.9 | 1501.7 | 1504.3 | 1506.6 | 1509.1
303.15 K | 996.471 | 997.262 | 998.033 | 998.733 | 999.48 | 1511.1 | 1513.8 | 1516.2 | 1518.7 | 1521.2
308.15 K | 994.84 | 995.613 | 996.362 | 997.038 | 997.764 | 1521.8 | 1524 | 1526.2 | 1528.3 | 1530.3

OCCOCCOCCO [triethylene glycol] + O
[2]
Details | mass density, m1 = 0.0965 [kg/m3] | mass density, m1 = 0.2002 [kg/m3] | mass density, m1 = 0.292 [kg/m3] | mass density, m1 = 0.3986 [kg/m3] | mass density, m1 = 0.4988 [kg/m3] | speed of sound, m1 = 0.0965 [m/s] | speed of sound, m1 = 0.2002 [m/s] | speed of sound, m1 = 0.292 [m/s] | speed of sound, m1 = 0.3986 [m/s] | speed of sound, m1 = 0.4988 [m/s]
293.15 K | 1000.31 | 1002.46 | 1004.29 | 1006.36 | 1008.22 | 1489.9 | 1498 | 1504.8 | 1513.1 | 1520.5
298.15 K | 999.126 | 1001.27 | 1003.11 | 1005.14 | 1006.99 | 1503.5 | 1511 | 1517.6 | 1525.4 | 1532.2
303.15 K | 997.728 | 999.858 | 1001.67 | 1003.69 | 1005.54 | 1514.8 | 1521.8 | 1528 | 1535.1 | 1541.7
308.15 K | 996.095 | 998.216 | 1000.01 | 1002.02 | 1003.85 | 1525.1 | 1531.3 | 1536.9 | 1543.3 | 1549.4

OCCOCCO [diethylene glycol] + O
[2]
Details | mass density, m1 = 0.09849 [kg/m3] | mass density, m1 = 0.1974 [kg/m3] | mass density, m1 = 0.295 [kg/m3] | mass density, m1 = 0.4101 [kg/m3] | mass density, m1 = 0.5006 [kg/m3] | speed of sound, m1 = 0.09849 [m/s] | speed of sound, m1 = 0.1974 [m/s] | speed of sound, m1 = 0.295 [m/s] | speed of sound, m1 = 0.4101 [m/s] | speed of sound, m1 = 0.5006 [m/s]
293.15 K | 999.647 | 1001.03 | 1002.36 | 1003.86 | 1004.99 | 1487.7 | 1493.1 | 1498.1 | 1504.1 | 1508.3
298.15 K | 998.458 | 999.78 | 1001.03 | 1002.49 | 1003.59 | 1501.2 | 1506 | 1510.8 | 1516.2 | 1520.3
303.15 K | 997.071 | 998.395 | 999.643 | 1001.05 | 1002.15 | 1513.1 | 1517.6 | 1522 | 1526.9 | 1530.6
308.15 K | 995.44 | 996.778 | 998.046 | 999.471 | 1000.53 | 1523.5 | 1527.5 | 1531.5 | 1536.1 | 1539.6

Nc1ccccc1 [aniline] + O
[2]
Details | mass density, 293.15 K | mass density, 298.15 K | mass density, 303.15 K | mass density, 308.15 K | speed of sound, 293.15 K [m/s] | speed of sound, 298.15 K [m/s] | speed of sound, 303.15 K [m/s] | speed of sound, 308.15 K
m1 = 0.1 | 998.568 kg/m3 and 998.57 kg/m3 | 997.42 kg/m3 and 997.421 kg/m3 | 995.98 kg/m3 and 995.983 kg/m3 | 994.35 kg/m3 and 994.351 kg/m3 | 1483.3 | 1497.2 | 1509.5 | 1520.5 m/s
m1 = 0.2 | 998.97 kg/m3 and 998.972 kg/m3 | 997.81 kg/m3 and 997.813 kg/m3 | 996.33 kg/m3 and 996.326 kg/m3 | 994.68 kg/m3 and 994.684 kg/m3 | 1485 | 1498.7 | 1510.8 | 1521.9 m/s and 1520.5 m/s
m1 = 0.3 | 999.36 kg/m3 and 999.363 kg/m3 | 998.21 kg/m3 and 998.208 kg/m3 | 996.705 kg/m3 and 996.71 kg/m3 | 995.035 kg/m3 and 995.04 kg/m3 | 1486.8 | 1500 | 1512.1 | 1521.9 m/s and 1523.3 m/s
m1 = 0.4 | 999.783 kg/m3 and 999.78 kg/m3 | 998.592 kg/m3 and 998.59 kg/m3 | 997.079 kg/m3 and 997.08 kg/m3 | 995.385 kg/m3 and 995.39 kg/m3 | 1488.6 | 1502 | 1513.5 | 1523.6 m/s and 1524.7 m/s
